{"source": "patent US20180094232A1", "about": "“Methods For The Cryopreservation Of Mammalian Cells” (The General Hospital Corporation, priority 2009, published 2018)", "key": {"[1]": {"experiment": "Vitrification of CPA laden solutions: opacity after plunging the device into liquid nitrogen", "type": "physicochemical", "source_text": "One convenient way for determining non-vitrification is the appearance of opacity as a result of ice formation when freezing solutions in a straw. If there is no visible opacity, it is called apparent vitrification. Although opacity could be easily identified in the traditional plastic straw using the naked eye, it is very difficult to do so for the quartz micro-capillary due to its small dimension. Therefore, an experimental setup shown in FIG. 10 was designed for visualization of opacity during cooling by directing two focused lights on the capillary held against a dark background for all the devices shown in FIG. 1 except the stainless steel micro-capillary. […] This setup was used to determine the threshold (minimum) CPA concentration required to completely avoid opacity during cooling. […] Various total CPA concentrations from 12% to 30% by volume with 2% increments were studied using both the open pulled straw and the thin walled quartz micro-capillary. Since 0.2-1 M sucrose or trehalose has been used in essentially all studies for cryopreservation of mammalian oocytes by both slow freezing and vitrification, further studies were also performed using the quartz micro-capillary for solutions with 0.5 M sucrose or trehalose plus 1.5 M, 2.0 M, and 2.5 M PROH, respectively. The solutions can be loaded into the open pulled straw and quartz micro-capillaries by capillary action while it can be expelled out of the capillaries by using a micro-syringe attached with a soft PEP polymer needle tip to push from the end of the capillaries with a bigger opening."}, "[2]": {"experiment": "Critical cooling rate to achieve vitrification (Vcc) from Boutron's semi-empirical theory and DSC K4", "type": "physicochemical", "source_text": "The critical cooling rate to achieve vitrification (Vcc) is a function of the concentration of cryoprotectant. It has been extensively studied in the case of 1,2-propanediol and other alcohols with relevance in cryobiology, although mainly in the range of cooling rates achievable by differential scanning calorimetry (DSC) techniques. However, it is possible to obtain estimates of the critical cooling rates at other […]. The presence of sugars in equimolar concentrations has shown to have no effect on Vcc in the case of monosaccharides and little effect in the case of sucrose for the concentration used in these studies (0.3 M)(Kuleshova et al., Cryobiology 38: 199-130, 1999). The Vcc can be inferred from Boutron's semi-empirical theory of glass forming tendency (Boutron, Cryobiology 23:88-102, 1986); it is given by:\nTo is the initial temperature of crystallization and xg is the amount of ice formed at the critical cooling rate. Many studies in the literature consider a solution to be vitrified when xg≦10^−6 (Liu and McGrath, Proc. 2005 IEEE Eng. Med. Biol. 27th Ann. Conference, p. 7501-7504, 2005). K4 is a constant dependent of the solution and can be determined by DSC. Although there is not data for K4 in the available literature for our solution, some estimation can be done. The values of K4 for 40%, 37.5% and 35% (w/w) of aqueous solutions of 1,2 propanediol are 24.1° C./min, 54.1° C./min and 151° C./min (Ren et al., Cryobiology 31:47-56, 1994). These values of K4 give rise to Vcc values of 8.0×10^2° C./min, 1.8×10^3° C./min and 5.0×10^3° C./min, respectively. So, a tentative value of […] for 1.8 M of 1,2-propanediol is 10^4° C./min. […] The exponential fitting of the data is justified by the theory (Ren et al., supra)."}, "[3]": {"system": "murine embryonic stem (ES) cells", "experiment": "Attachment efficiency of ES cells post vitrification", "type": "cell-based", "settings": "0.5 M trehalose, 2 M PROH, alone or combined; QMC, liquid nitrogen; day 1", "description": "On the day of experiment, the attached cells were lightly trypsinized for 3-5 minutes and collected. The cells were pelleted at 100×g for 5 minutes and resuspended in cold stem cell media supplemented with 1.5 M 1,2-propanediol (Sigma, St Louis, Mo.) and incubated on ice for 10 minutes. The cells were then spun down at 100×g for 3-5 minutes and resuspended in 1 ml first vitrification solution for 10 minutes. The cells were then spun down at 100×g for 3-5 minutes and resuspended in the second solution at 10×10^6/ml for another 10 minutes. The first vitrification solution was made of ES cell maintenance medium supplemented with 1.5 M 1,2-propanediol, while the second solution was supplemented with 2 M 1,2-propanediol and 0.5 M trehalose (Ferro Pfanstiehl Laboratories, Inc., Waukegan, Ill.). Cells were also cryopreserved using either 0.5 M trehalose or 2 M 1,2-propanediol only for comparison. […]\nCell attachment and growth was determined by counting the number of cells per field under a 10× objective. […] The attachment efficiency was calculated as the ratio of the total number of cells per field of a cryopreserved sample to that of the control non-frozen sample at day 1. To assess the proliferation of the attached cells, the total number of cells per field was further monitored for 4 days."}, "[4]": {"system": "primary rat hepatocytes", "experiment": "Hepatocyte viability post-cryopreservation in QMC, exclusion of trypan blue", "type": "cell-based", "settings": "1.5 M PROH, 0.3 M sucrose, or both, immediately post-cryopreservation", "description": "The vitrification technique was also tested using primary liver cells (hepatocytes) due to their sensitivity to stress, and importance in liver tissue engineering and availability. The cell viability of hepatocytes was determined immediately post-cryopreservation in quartz micro-capillaries (QMC) in the presence of either no CPA; 0.3 M sucrose; 1.5 M 1,2-propanediol (PROH); 1.5 M PROH and 0.3 M sucrose; or 2.0 M PROH and […]. The number of viable cells was determined in both vitrified samples as well as non-vitrified controls (i.e., no freezing). Cell viability was quantified by the exclusion of trypan blue. […] There was only ˜35% survival for cells loaded with 1.5 M PROH prior to cryopreservation. Sucrose (0.3 M) was then added to the cryopreservation solution with 1.5-2 M PROH. […] When 0.3 M sucrose was added to the cryopreservation solution, the immediate viability jumped to ˜75%."}, "[5]": {"system": "mouse oocytes", "experiment": "Survival and morphology of mouse oocytes after vitrification in quartz capillaries", "type": "cell-based", "description": "The 6-week-old B6D2F1 female mice were superovulated with 7.5 IU of pregnant mare serum gonadotrophin (Sigma-Aldrich, St. Louis, Mo., USA) and 7.5 IU of human chorionic gonadotrophin (Sigma-Aldrich) given by intraperitoneal injections 48 h apart. Fourteen hours after human chorionic gonadotrophin injection, females were anaesthetized with avertin (Sigma-Aldrich) then killed by cervical dislocation and their oviducts were removed. The cumulus-oocytecomplex was released from the ampullary region of each oviduct by puncturing the oviduct with a 27-gauge needle. Cumulus cells were removed by exposure to hyaluronidase (80 IU/ml) (Irvine Scientific, Santa Ana, Calif., USA) for 3 min and washed three times with human tubal fluid (HTF) medium (Irvine Scientific) with 10% fetal bovine serum (FBS; Gibco, Carlsbad, Calif., USA). Oocytes were transferred and cultured in HTF medium (Quinn et al., 1995) containing 10% FBS at 37° C. and 5% CO2 in air until they were vitrified.\nAll cryoprotectant solutions were filter-sterilized and stored at 4° C. prior to use. The base cryoprotectant solutions used were PrOH (Sigma-Aldrich) and trehalose (Ferro Pfanstiehl Laboratory, Waukegan, Ill., USA). The concentrations and types of cryoprotectants used were similar to those used in traditional slow-freezing protocols for human oocytes (Gook and Edgar, 2007) and are not typically vitrifiable. For vitrification, isolated mature oocytes were placed into HTF medium supplemented with 10% FBS. Two vitrification protocols using a HEPES-buffered physiological salt solution (FHM; Specialty Media, Lavallette, N.J., USA) (Lawitts and Biggers, 1993) as a base medium were tested. In the first protocol, the oocytes were equilibrated in a 30 μl droplet of 0.75 mol/l PrOH in FHM20 (FHM medium containing 20% FBS) for 5 min, then transferred to a 30 μl droplet of 0.5 mol/l trehalose+1.5 mol/l PrOH in FHM20 for 5 min.\nIn the second protocol, oocytes were equilibrated in a 30 μl droplet of 0.75 mol/l PrOH in FHM20 for 5 min, then equilibrated in a 30 μl droplet of 1.5 mol/l PrOH in FHM20 for 5 min before being transferred to a 0.5 mol/l trehalose 2.0 mol/l PrOH in FHM20, for 5 min. The QC straws (The Charles Supper Company, USA) used for vitrification have an outer and inner diameter of approximately 0.2 and 0.18 mm, respectively, and a wall thickness of 0.01 mm (He et al., 2008). After exposure to the vitrification solution, the oocytes were then loaded into the 200 μm QC and plunged into liquid or slush nitrogen for comparison. For warming, the vitrified oocytes were immediately immersed in a holding medium containing 0.2 mol/l trehalose in […]phosphate-buffered saline (PBS; Gibco) at 37° C. for 1 minute. […]"}, "[6]": {"settings": "cited from earlier work"}, "[7]": {"settings": "both open pulled straw and quartz micro-capillary"}}, "note": "Entries after “also recorded” stand apart in the source; their conditions may differ. Like-named read-outs stand apart in the source and are kept apart here.", "data": [{"smiles": "CC(O)CO", "note": "(stereo not drawn) [1,2-Propanediol (PROH), 1,2-propanediol]", "values": [{"measurement": "appearance of the loaded quartz micro-capillary after plunging into liquid nitrogen", "setting": "[1]; 1 M (7% v) 1,2-propanediol in FHM", "value": "opaque; also recorded: whitish appearance"}, {"measurement": "appearance of the loaded quartz micro-capillary after plunging into liquid nitrogen", "setting": "[1]; 2 M (14% v) 1,2-propanediol in FHM", "value": "clear appearance"}, {"measurement": "threshold concentration lower than that of ethylene glycol (EG)", "setting": "[1]; [7]", "value": "~5", "unit": "% v"}, {"measurement": "threshold concentration lower than that of the combination of EG and PROH in a 1:1 ratio", "setting": "[1]; [7]", "value": 2.5, "unit": "% v"}, {"measurement": "threshold concentration for the complete absence of opacity", "setting": "[1]; micro-capillary, liquid nitrogen", "value": "~2", "unit": "M"}, {"measurement": "K4, tentative value", "setting": "[2]; 1.8 M", "value": "~10^4 ° C./min"}, {"measurement": "critical cooling rate to achieve vitrification (Vcc)", "setting": "[2]; 35% (w/w) aqueous solution", "value": "5.0×10^3 ° C./min"}, {"measurement": "critical cooling rate to achieve vitrification (Vcc)", "setting": "[2]; 37.5% (w/w) aqueous solution", "value": "1.8×10^3 ° C./min"}, {"measurement": "critical cooling rate to achieve vitrification (Vcc)", "setting": "[2]; 40% (w/w) aqueous solution", "value": "8.0×10^2 ° C./min"}, {"measurement": "attachment efficiency (normalized to control)", "setting": "[3]", "value": "minimum amount of cells can attach"}, {"measurement": "cell survival, immediate viability", "setting": "[4]", "value": "~35", "unit": "%"}, {"measurement": "Surviving oocytes", "setting": "[5]; liquid nitrogen, 1.5 mol/l PrOH + 0.5 mol/l trehalose in FHM20, QC", "value": "18/40 (45.0) %"}, {"measurement": "Surviving oocytes", "setting": "[5]; liquid nitrogen, 2.0 mol/l PrOH + 0.5 mol/l trehalose in FHM20, QC", "value": "19/40 (47.5) %"}, {"measurement": "Surviving oocytes", "setting": "[5]; slush nitrogen, 1.5 mol/l PrOH + 0.5 mol/l trehalose in FHM20, QC", "value": "36/40 (90.0) %"}, {"measurement": "Surviving oocytes", "setting": "[5]; slush nitrogen, 2.0 mol/l PrOH + 0.5 mol/l trehalose in FHM20, QC", "value": "28/40 (70.0) %"}, {"measurement": "K4", "setting": "[6]; 35% (w/w) aqueous solution", "value": 151, "unit": "° C./min"}, {"measurement": "K4", "setting": "[6]; 37.5% (w/w) aqueous solution", "value": 54.1, "unit": "° C./min"}, {"measurement": "K4", "setting": "[6]; 40% (w/w) aqueous solution", "value": 24.1, "unit": "° C./min"}]}, {"smiles": "OCCO", "note": "[Ethylene glycol (EG), ethylene glycol]", "values": [{"measurement": "threshold concentration for the complete absence of opacity", "setting": "[1]", "value": "~4", "unit": "M"}]}, {"smiles": "OC[C@H]1O[C@@](CO)(O[C@H]2O[C@H](CO)[C@@H](O)[C@H](O)[C@H]2O)[C@@H](O)[C@@H]1O", "note": "[sucrose]", "values": [{"measurement": "cell survival, immediate viability", "setting": "[4]", "value": "less than 10%"}]}, {"smiles": "OC[C@H]1O[C@H](O[C@H]2O[C@H](CO)[C@@H](O)[C@H](O)[C@H]2O)[C@H](O)[C@@H](O)[C@@H]1O", "note": "[trehalose]", "values": [{"measurement": "attachment efficiency (normalized to control)", "setting": "[3]", "value": "minimum amount of cells can attach"}]}]}
